Results as given in patent publication US11759462B2, “Spirocyclic compounds as tryptophan hydroxylase inhibitors” (priority 2013, dated 2023).

target: T1, Recombinant human TPH1 (MBP tagged) (Homo sapiens, UniProt P17752); assay: TPH1 in vitro inhibition assay (kinetic fluorescence); format: biochemical; conditions: read-out: TPH1 Range (TPH1 inhibition IC50)
T1 construct: cloning full length human TPH1 cDNA in to a bacterial pMAL-c5E expression vector; made in house; host or cells: E. coli BL21 (DE3)
T1 sequence (P17752 1-444): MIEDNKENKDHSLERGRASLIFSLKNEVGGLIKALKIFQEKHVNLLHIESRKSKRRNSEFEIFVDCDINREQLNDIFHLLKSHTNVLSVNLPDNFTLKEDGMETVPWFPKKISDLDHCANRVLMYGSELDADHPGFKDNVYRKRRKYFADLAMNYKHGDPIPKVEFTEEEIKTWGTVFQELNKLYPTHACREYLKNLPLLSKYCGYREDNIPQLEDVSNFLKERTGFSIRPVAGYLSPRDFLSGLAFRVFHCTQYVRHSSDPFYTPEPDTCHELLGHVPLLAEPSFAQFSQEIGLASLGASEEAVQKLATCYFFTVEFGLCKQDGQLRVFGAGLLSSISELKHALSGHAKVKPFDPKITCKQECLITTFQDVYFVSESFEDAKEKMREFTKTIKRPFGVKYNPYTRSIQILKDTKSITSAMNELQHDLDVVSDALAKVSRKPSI
In short: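 Final mix: 15 nM MBP-TPH1, 30 μM Trp, 36 μM 6-methyltetrahydropterin, 25 μM ferrous ammonium sulfate, 50 mM MES pH 7.1, 1% DMSO, room temperature.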

| Molecule | IC50 |
| --- | --- |
| (S)-8-(2-amino-6-((R)-1-(4-bromo-2-(3-methyl-H-pyrazol-1-yl)phenyl)-2,2,2-trifluoroethoxy)pyrimidin-4-yl)-2,8-diazaspiro[4.5]decane-3-carboxylic acid [Example 10o] | < 0.05 µM |
| (S)-8-(2-amino-6-((R)-1-(5-chloro-3′-isopropyl-[1,1′- biphenyl]-2-yl)-2,2,2-trifluoroethoxy)pyrimidin-4- yl)-2,8-diazaspiro[4.5]decane-3-carboxylic acid [Example 34ce] | 0.05 to 0.3 µM |
| (S)-8-(2-amino-6-((R)-2,2,2-trifluoro-1-(3-(3- methyl-1H-pyrazol-1-yl)-2′,3′,4′,5′-tetrahydro- [1,1′-biphenyl]-4-yl)ethoxy)pyrimidin-4-yl)- 2,8-diazaspiro[4.5]decane-3-carboxylic acid [Example 1v] | < 0.05 µM |
| (S)-8-(2-amino-6-((R)-2,2,2-trifluoro-1-(3′,4,5′- trifluoro-[1,1′-biphenyl]-4-yl)ethoxy)pyrimidin-4- yl)-2,8-diazaspiro[4.5]decane-3-carboxylic acid [Example 55co] | 0.05 to 0.3 µM |
| (S)-8-(6-((R)-1-(4-(1H-indol-6-yl)-2-(3-methyl- 1H-pyrazol-1-yl)phenyl)-2,2,2-trifluoroethoxy)- 2-aminopyrimidin-4-yl)-2,8- diazaspiro[4.5]decane-3-carboxylic acid [Example 1aa] | < 0.05 µM |

test system: jejunal mucosal 5-HT in mice (C57 BL6); assay: Intestinal 5-HT depletion assay (Example B, single 150 mg/kg oral dose); format: in vivo, mouse; conditions: one day after oral administration of a single 150 mg/kg dose, P-value class (ANOVA)
Description: The efficacy of the TPH1 inhibitors of the invention was assessed for the ability to decrease intestinal serotonin concentration in mice. Mice (C57 BL6) were administered a single 150 mg/kg dose of test article by oral gavage. Each animal was euthanized by exsanguination under isoflurane anesthesia. Jejunal intestinal mucosa was isolated and homogenized in 300 μL of a buffer containing 0.3M trichloroacetic acid, 0.1M sodium acetate, 10 mM EDTA, 20 mM sodium bisulfate and 50 mM ascorbic acid. Following centrifugation the 5-HT levels in the supernatants were measured by HPLC. The remaining mucosal pellet was solubilized overnight at 37° C. in a 0.1% sodium dodecyl sulfate buffer in 0.1N NaOH followed by determination of protein concentrations using a BCA protein assay (Pierce, Rockford, Ill. 5-HT levels were normalized to protein and data were expressed as mean percent reduction of mucosal 5-HT levels relative to vehicle control SEM (percent 5-HT reduction). All animal studies were carried out with protocols approved by the Institutional Animal Care and Use Committee.
P-values, indicating statistical significance of the data (ANOVA) are provided in the table: * refers to P<0.05, ** refers to P<0.01, *** refers to P<0.005, and refers to P<0.0005.

| Molecule | Efficacy (statistical significance of reduction of mucosal 5-HT concentrations relative to vehicle) |
| --- | --- |
| CCOC(=O)c1cccc(-c2ccc([C@@H](Oc3cc(N4CCC5(CC4)CN[C@H](C(=O)O)C5)nc(N)n3)C(F)(F)F)c(-n3ccc(C)n3)c2)c1 [Example 5] | ** (** refers to P<0.01) |
| Cc1ccn(-c2cc(C(F)(F)F)ccc2[C@@H](Oc2cc(N3CCC4(CC3)CN[C@H](C(=O)O)C4)nc(N)n2)C(F)(F)F)n1 [Example 10g, (S)-8-(2-amino-6-((R)-2,2,2-trifluoro-1-(2-(3-methyl-1H-pyrazol-1-yl)-4-(trifluoromethyl)phenyl)ethoxy)pyrimidin-4-yl)-2,8-diazaspiro[4.5]decane-3-carboxylic acid] | ** (** refers to P<0.01) |
| Cc1ccc([C@@H](Oc2cc(N3CCC4(CC3)CN[C@H](C(=O)O)C4)nc(N)n2)C(F)(F)F)c(-n2ccc(C)n2)c1 [Example 10h, (S)-8-(2-amino-6-((R)-2,2,2-trifluoro-1-(4-methyl-2-(3-methyl-1H-pyrazol-1-yl)phenyl)ethoxy)pyrimidin-4-yl)-2,8-diazaspiro[4.5]decane-3-carboxylic acid] | *** (*** refers to P<0.005) |
| Cc1ccn(-c2cc(Cl)ccc2[C@@H](Oc2cc(N3CCC4(CC3)CN[C@H](C(=O)O)C4)nc(C)n2)C(F)(F)F)n1 [Example 28, (S)-8-(6-((R)-1-(4-chloro-2-(3-methyl-H-pyrazol-1-yl)phenyl)-2,2,2-trifluoroethoxy)-2-methylpyrimidin-4-yl)-2,8-diazaspiro[4.5]decane-3-carboxylic acid] | * (* refers to P<0.05) |
| Cc1ccn(-c2cc(-c3cccnc3)ccc2[C@@H](Oc2cc(N3CCC4(CC3)CN[C@H](C(=O)O)C4)nc(C)n2)C(F)(F)F)n1 [Example 29z, (S)-8-(2-methyl-6-((R)-2,2,2-trifluoro-1-(2-(3-methyl-1H-pyrazol-1-yl)-4-(pyridin-3-yl)phenyl)ethoxy)pyrimidin-4-yl)-2,8-diazaspiro[4.5]decane-3-carboxylic acid] | ** (** refers to P<0.01) |
| Cc1ccn(-c2cc(Cl)ccc2[C@@H](Oc2cc(N3CCC4(CC3)CNC(C(=O)O)C4)nc(NC3CCCCC3)n2)C(F)(F)F)n1 (stereo partly drawn) [Example 31, 8-(6-((R)-1-(4-chloro-2-(3-methyl-H-pyrazol-1-yl)phenyl)-2,2,2-trifluoroethoxy)-2-(cyclohexylamino)pyrimidin-4-yl)-2,8-diazaspiro[4.5]decane-3-carboxylic acid] | * (* refers to P<0.05) |
| Nc1nc(O[C@H](c2ccc(Cl)cc2-c2ccccc2)C(F)(F)F)cc(N2CCC3(CC2)CN[C@H](C(=O)O)C3)n1 [Example 34r, (S)-8-(2-amino-6-((R)-1-(5-chloro-[1,1′-biphenyl]-2-yl)-2,2,2-trifluoroethoxy)pyrimidin-4-yl)-2,8-diazaspiro[4.5]decane-3-carboxylic acid] | *** (*** refers to P<0.005) |
| CCOC(=O)C1CC2(CCN(c3cc(O[C@H](c4ccc(Cl)cc4-n4ccc(C)n4)C(F)(F)F)nc(N)n3)CC2)CN1 (stereo partly drawn) [Example 63ay, ethyl 8-(2-amino-6-((R)-1-(4-chloro-2-(3-methyl-1H-pyrazol-1-yl)phenyl)-2,2,2-trifluoroethoxy)pyrimidin-4-yl)-2,8-diazaspiro[4.5]decane-3-carboxylate] | *** (*** refers to P<0.005) |
| CCOC(=O)[C@@H]1CC2(CCN(c3cc(O[C@H](c4ccc(-c5cccc(OC)c5)cc4)C(F)(F)F)nc(N)n3)CC2)CN1 [Example 63ba, (S)-ethyl 8-(2-amino-6-((R)-2,2,2-trifluoro-1-(3′-methoxy-[1,1′-biphenyl]-4-yl)ethoxy)pyrimidin-4-yl)-2,8-diazaspiro[4.5]decane-3-carboxylate] | *** (*** refers to P<0.005) |
| CCOC(=O)[C@@H]1CC2(CCN(c3cc(O[C@H](c4ccc(CC)cc4-n4ccc(C)n4)C(F)(F)F)nc(N)n3)CC2)CN1 [Example 63be, (S)-ethyl 8-(2-amino-6-((R)-1-(4-ethyl-2-(3-methyl-1H-pyrazol-1-yl)phenyl)-2,2,2-trifluoroethoxy)pyrimidin-4-yl)-2,8-diazaspiro[4.5]decane-3-carboxylate] | *** (*** refers to P<0.005) |
| CCOC(=O)c1ccc(-n2ccc(C)n2)c([C@@H](Oc2cc(N3CCC4(CC3)CN[C@H](C(=O)OCC)C4)nc(N)n2)C(F)(F)F)c1 [Example 63bh, (S)-ethyl 8-(2-amino-6-((R)-1-(5-(ethoxycarbonyl)-2-(3-methyl-1H-pyrazol-1-yl)phenyl)-2,2,2-trifluoroethoxy)pyrimidin-4-yl)-2,8-diazaspiro[4.5]decane-3-carboxylate] | ** (** refers to P<0.01) |
| CCOC(=O)c1ccc([C@@H](Oc2cc(N3CCC4(CC3)CN[C@H](C(=O)OCC)C4)nc(N)n2)C(F)(F)F)c(-n2ccc(C)n2)c1 [Example 63bi, (S)-ethyl 8-(2-amino-6-((R)-1-(4-(ethoxycarbonyl)-2-(3-methyl-1H-pyrazol-1-yl)phenyl)-2,2,2-trifluoroethoxy)pyrimidin-4-yl)-2,8-diazaspiro[4.5]decane-3-carboxylate] | ** (** refers to P<0.01) |
| CCCCc1ccc(-n2ccc(C)n2)c([C@@H](Oc2cc(N3CCC4(CC3)CN[C@H](C(=O)OCC)C4)nc(N)n2)C(F)(F)F)c1 [Example 63bq, (S)-ethyl 8-(2-amino-6-((R)-1-(5-butyl-2-(3-methyl-1H-pyrazol-1-yl)phenyl)-2,2,2-trifluoroethoxy)pyrimidin-4-yl)-2,8-diazaspiro[4.5]decane-3-carboxylate] | **** (and refers to P<0.0005) |
| CCOC(=O)[C@@H]1CC2(CCN(c3cc(O[C@H](c4ccc(-c5ccc6c(c5)CCNC6=O)cc4)C(F)(F)F)nc(N)n3)CC2)CN1 [Example 63bx, (S)-ethyl 8-(2-amino-6-((R)-2,2,2-trifluoro-1-(4-(1-oxo-1,2,3,4-tetrahydroisoquinolin-6-yl)phenyl)ethoxy)pyrimidin-4-yl)-2,8-diazaspiro[4.5]decane-3-carboxylate] | *** (*** refers to P<0.005) |
| CCOC(=O)[C@@H]1CC2(CCN(c3cc(O[C@H](c4ccc(-c5ccc6cnccc6c5)cc4)C(F)(F)F)nc(N)n3)CC2)CN1 [Example 63by, (S)-ethyl 8-(2-amino-6-((R)-2,2,2-trifluoro-1-(4-(isoquinolin-6-yl)phenyl)ethoxy)pyrimidin-4-yl)-2,8-diazaspiro[4.5]decane-3-carboxylate] | *** (*** refers to P<0.005) |
